# According to patent US6737383B1, “Herbicidal oxadiazolidines” (priority 1999, dated 2004):
# How the values were obtained:
# pigweed = experiment: Test B pre/postemergence pigweed; assay type: in vivo, Amaranthus retroflexus
# Method in brief: (§1)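 Response is a visual 0-to-10 score relative to untreated plants, where 0 means no effect and 10 means complete control, taken twelve to sixteen days after application. Treatments went onto soil at planting and onto foliage of 1- to 4-leaf plants, using a surfactant-containing non-phytotoxic solvent.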
# wild oat = experiment: Test B pre/postemergence wild oat; assay type: in vivo, Avena fatua; details: for Plant response rating, Wild oats: Rate 250 g/ha
# Method in brief: as §1
# velvetleaf = experiment: Test B pre/postemergence velvetleaf; assay type: in vivo, Abutilon theophrasti; details: for Plant response rating, Velvetleaf: Rate 250 g/ha
# Method in brief: as §1
# rice = experiment: Test B flood test rice; assay type: in vivo, Oryza sativa
# Method in brief: (§2)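 Read-out is a visual response score from 0 (no effect) to 10 (complete control), assigned by comparison with untreated controls. Treatment was applied at the 2-leaf stage, and plants stayed in the greenhouse for twelve to sixteen days before scoring.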
# soybean = experiment: Test B pre/postemergence soybean; assay type: in vivo, Glycine max
# Method in brief: as §1
# morningglory = experiment: Test B pre/postemergence morningglory; assay type: in vivo, Ipomoea hederacea
# Method in brief: as §1
# surinam grass = experiment: Test B pre/postemergence surinam grass; assay type: in vivo, Brachiaria decumbens
# Method in brief: as §1
# blackgrass = experiment: Test B pre/postemergence blackgrass; assay type: in vivo, Alopecurus myosuroides
# Method in brief: as §1
# cocklebur = experiment: Test B pre/postemergence cocklebur; assay type: in vivo, Xanthium strumarium
# Method in brief: as §1
# corn = experiment: Test B pre/postemergence corn; assay type: in vivo, Zea mays
# Method in brief: as §1
# bamyardgrass = experiment: Test B flood test barnyardgrass; assay type: in vivo, Echinochloa crus-galli
# Method in brief: as §2
# giant foxtail = experiment: Test B pre/postemergence giant foxtail; assay type: in vivo, Setaria faberii
# Method in brief: as §1
# wheat = experiment: Test B pre/postemergence wheat; assay type: in vivo, Triticum aestivum; details: for Plant response rating, Wheat: Rate 250 g/ha
# Method in brief: as §1
# bedstraw = experiment: Test B pre/postemergence bedstraw; assay type: in vivo, Galium aparine
# Method in brief: as §1
# smallflower flatsedge = experiment: Test B flood test smallflower flatsedge; assay type: in vivo, Cyperus difformis
# Method in brief: as §2
# crabgrass = experiment: Test B pre/postemergence crabgrass; assay type: in vivo, Digitaria sanguinalis
# Method in brief: as §1
# [1] = Postemergence, Rate 125 g/ha, scale of 0 to 10 where 0 is no effect and 10 is complete control
# [2] = Preemergence, Rate 62 g/ha, scale 0 to 10 (0 no effect, 10 complete control)
# [3] = Preemergence, Rate 125 g/ha, scale 0 to 10 (0 no effect, 10 complete control)
# [4] = Preemergence, Rate 250 g/ha, scale of 0 to 10 where 0 is no effect and 10 is complete control
# [5] = Preemergence, Rate 500 g/ha, scale 0 to 10 (0 no effect, 10 complete control)
# [6] = Rate 62 g/ha, Postemergence, scale of 0 to 10 where 0 is no effect and 10 is complete control
# [7] = Rate 250 g/ha, Postemergence, scale 0 to 10, 0 is no effect, 10 is complete control
# [8] = Rate 500 g/ha, Postemergence, scale 0 to 10, 0 no effect, 10 complete control
# [9] = Preemergence, Rate 125 g/ha, 0 is no effect, 10 is complete control
# [10] = Preemergence, scale of 0 to 10 where 0 is no effect and 10 is complete control
# [11] = Postemergence, scale 0 to 10, 0 is no effect, 10 is complete control
# [12] = Postemergence (flood test species), Rate 125 g/ha, scale of 0 to 10 where 0 is no effect and 10 is complete control
# [13] = Rate 62 g/ha, Postemergence section, flood test species, scale of 0 to 10 where 0 is no effect and 10 is complete control
# [14] = Rate 250 g/ha, Postemergence (flood test), scale 0 to 10, 0 is no effect, 10 is complete control
# [15] = Rate 250 g/ha, headed Pre-emergence (flood test species), scale 0 to 10 (0 no effect, 10 complete control)
# [16] = Rate 500 g/ha, headed Pre-emergence (flood test species), scale 0 to 10 (0 no effect, 10 complete control)
# [17] = Rate 500 g/ha, listed under Postemergence (flood test species), scale 0 to 10, 0 no effect, 10 complete control
# [18] = Rate 1000 g/ha, Pre-emergence (as headed), scale 0 to 10
# [19] = Rate 2000 g/ha, Pre-emergence (as headed), scale 0 to 10
# [20] = Postemergence, Rate 250 g/ha, scale 0 to 10, 0 no effect, 10 complete control
# [21] = Postemergence, Rate 62 g/ha, scale 0 to 10, 0 is no effect, 10 is complete control
# [22] = Rate 125 g/ha, Postemergence, scale 0 to 10, 0 no effect, 10 complete control
structure (smiles),measurement,setting,value
CCn1c(=O)on(C(=O)N(c2ccccc2)C(C)C)c1=O [Compound 117],Redroot pigweed plant response rating,pigweed; [1],0
same,Redroot pigweed plant response rating,pigweed; [2],9
same,"Plant response rating, Redroot pigweed",pigweed; [3],10
same,"Plant response rating, Redroot pigweed",pigweed; [4],10
same,Redroot pigweed plant response rating,pigweed; [5],10
same,Redroot pigweed plant response rating,pigweed; [6],0
same,"Plant response rating, Redroot pigweed",pigweed; [7],0
same,Redroot pigweed plant response rating,pigweed; [8],6
same,Wild oats plant response rating,wild oat; [1],3
same,Wild oats plant response rating,wild oat; [2],3
same,Wild oats plant response rating (0 to 10 scale),wild oat; [9],6
same,"Plant response rating, Wild oats",wild oat; [10],10
same,Wild oats plant response rating,wild oat; [5],10
same,Wild oats plant response rating,wild oat; [6],0
same,"Plant response rating, Wild oats",wild oat; [11],4
same,Wild oats plant response rating,wild oat; [8],8
same,Velvetleaf plant response rating,velvetleaf; [1],3
same,Velvetleaf plant response rating,velvetleaf; [2],6
same,Velvetleaf plant response rating (0 to 10 scale),velvetleaf; [9],8
same,"Plant response rating, Velvetleaf",velvetleaf; [10],10
same,Velvetleaf plant response rating,velvetleaf; [5],10
same,Velvetleaf plant response rating,velvetleaf; [6],0
same,"Plant response rating, Velvetleaf",velvetleaf; [11],6
same,Velvetleaf plant response rating,velvetleaf; [8],8
same,Rice plant response rating,rice; [12],0
same,Rice plant response rating,rice; [13],0
same,"Plant response rating, Rice",rice; [14],0
same,Rice plant response rating,rice; [15],0
same,"Plant response rating, Rice",rice; [16],0
same,Rice plant response rating,rice; [17],0
same,Rice plant response rating,rice; [18],0
same,Rice plant response rating,rice; [19],0
same,Soybean plant response rating,soybean; [1],5
same,Soybean plant response rating,soybean; [2],0
same,"Plant response rating, Soybean",soybean; [3],8
same,"Plant response rating, Soybean",soybean; [4],8
same,Soybean plant response rating,soybean; [5],9
same,Soybean plant response rating,soybean; [6],2
same,"Plant response rating, Soybean",soybean; [7],5
same,Soybean plant response rating,soybean; [8],7
same,Morningglory plant response rating,morningglory; [1],7
same,Morningglory plant response rating,morningglory; [20],7
same,Morningglory plant response rating,morningglory; [2],0
same,"Plant response rating, Morningglory",morningglory; [3],0
same,"Plant response rating, Morningglory",morningglory; [4],2
same,Morningglory plant response rating,morningglory; [5],6
same,Morningglory plant response rating,morningglory; [6],2
same,Morningglory plant response rating,morningglory; [8],10
same,B. signalgrass plant response rating,surinam grass; [21],6
same,B. signalgrass plant response rating,surinam grass; [20],9
same,B. signalgrass plant response rating,surinam grass; [2],6
same,"Plant response rating, B. signalgrass",surinam grass; [3],9
same,"Plant response rating, B. signalgrass",surinam grass; [4],9
same,B. signalgrass plant response rating,surinam grass; [5],10
same,B. signalgrass plant response rating,surinam grass; [22],8
same,B. signalgrass plant response rating,"surinam grass; Rate 500 g/ha, Postemergence, scale of 0 to 10 where 0 is no effect and 10 is complete control",9
same,Blackgrass plant response rating,blackgrass; [1],9
same,Blackgrass plant response rating,blackgrass; [20],9
same,Blackgrass plant response rating,blackgrass; [2],8
same,"Plant response rating, Blackgrass",blackgrass; [3],8
same,"Plant response rating, Blackgrass",blackgrass; [4],10
same,Blackgrass plant response rating,blackgrass; [5],10
same,Blackgrass plant response rating,blackgrass; [6],8
same,Blackgrass plant response rating,blackgrass; [8],9
same,Cocklebur plant response rating,cocklebur; [1],0
same,Cocklebur plant response rating,cocklebur; [20],0
same,Cocklebur plant response rating,cocklebur; [2],0
same,"Plant response rating, Cocklebur",cocklebur; [3],0
same,"Plant response rating, Cocklebur",cocklebur; [4],0
same,Cocklebur plant response rating,cocklebur; [5],0
same,Cocklebur plant response rating,cocklebur; [6],0
same,Cocklebur plant response rating,cocklebur; [8],1
same,Corn plant response rating,corn; [1],5
same,Corn plant response rating,corn; [20],6
same,Corn plant response rating,corn; [2],0
same,"Plant response rating, Corn",corn; [3],2
same,"Plant response rating, Corn",corn; [4],7
same,Corn plant response rating,corn; [5],9
same,Corn plant response rating,corn; [6],0
same,Corn plant response rating,corn; [8],7
same,Barnyardgrass plant response rating,bamyardgrass; [21],0
same,Barnyardgrass plant response rating,"bamyardgrass; Rate 125 g/ha, Postemergence section (flood test species), scale 0 to 10, 0 no effect, 10 complete control",0
same,Barnyardgrass plant response rating,bamyardgrass; [15],0
same,"Plant response rating, Barnyardgrass",bamyardgrass; [16],0
same,Barnyardgrass plant response rating,bamyardgrass; [17],3
same,Barnyardgrass plant response rating,bamyardgrass; [18],0
same,Barnyardgrass plant response rating,"bamyardgrass; Rate 2000 g/ha, Pre-emergence (as headed), scale 0 to 10, 0 no effect, 10 complete control",3
same,Barnyardgrass plant response rating,"bamyardgrass; flood test, listed under Postemergence, Rate 250 g/ha, scale 0 to 10, 0 no effect, 10 complete control",2
same,Giant foxtail plant response rating,giant foxtail; [1],9
same,Giant foxtail plant response rating,giant foxtail; [20],9
same,Giant foxtail plant response rating,giant foxtail; [2],10
same,"Plant response rating, Giant foxtail",giant foxtail; [3],10
same,"Plant response rating, Giant foxtail",giant foxtail; [4],10
same,Giant foxtail plant response rating,giant foxtail; [5],10
same,Giant foxtail plant response rating,giant foxtail; [6],9
same,Giant foxtail plant response rating,giant foxtail; [8],9
same,Wheat plant response rating,wheat; [1],6
same,Wheat plant response rating,wheat; [2],2
same,Wheat plant response rating (0 to 10 scale),wheat; [9],4
same,"Plant response rating, Wheat",wheat; [10],7
same,Wheat plant response rating,wheat; [5],8
same,Wheat plant response rating,wheat; [6],2
same,"Plant response rating, Wheat",wheat; [11],6
same,Wheat plant response rating,wheat; [8],8
same,Bedstraw plant response rating,bedstraw; [21],0
same,Bedstraw plant response rating,bedstraw; [20],2
same,Bedstraw plant response rating,bedstraw; [2],0
same,"Plant response rating, Bedstraw",bedstraw; [3],0
same,"Plant response rating, Bedstraw",bedstraw; [4],0
same,Bedstraw plant response rating,bedstraw; [5],0
same,Bedstraw plant response rating,bedstraw; [22],0
same,S. Flatsedge plant response rating,smallflower flatsedge; [12],0
same,S. Flatsedge plant response rating,"smallflower flatsedge; Pre-emergence, Rate 1000 g/ha, scale 0 to 10 (0 no effect, 10 complete control)",0
same,S. Flatsedge plant response rating,smallflower flatsedge; [13],0
same,"Plant response rating, S. Flatsedge",smallflower flatsedge; [14],0
same,S. Flatsedge plant response rating,smallflower flatsedge; [15],0
same,"Plant response rating, S. Flatsedge",smallflower flatsedge; [16],0
same,S. Flatsedge plant response rating,smallflower flatsedge; [17],0
same,S. Flatsedge plant response rating,smallflower flatsedge; [19],4
same,Crabgrass plant response rating,crabgrass; [1],9
same,Crabgrass plant response rating,crabgrass; [20],9
same,Crabgrass plant response rating,crabgrass; [2],9
same,"Plant response rating, Crabgrass",crabgrass; [3],10
same,"Plant response rating, Crabgrass",crabgrass; [4],10
same,Crabgrass plant response rating,crabgrass; [5],10
same,Crabgrass plant response rating,crabgrass; [6],9
same,Crabgrass plant response rating,crabgrass; [8],9
